Measured values: patent US7928098B2, “Therapeutic and/or preventive agents for a sleep disorder” (Kyowa Hakko Kirin Co., Ltd., priority 2005, dated 2011)

How the values were obtained:
[1] = tested on: ddY male mice; test: Effect on pentobarbital sodium-induced sleeping time (loss of righting reflex); format: in vivo; details: test compound 10 mg/kg p.o. one hour before pentobarbital-Na 25 mg/kg s.c.
Description: The test was conducted to examine influence of Compound (I) of the present invention on pentobarbital sodium-induced sleeping time, according to the method of Iyakuhin no Kaihatsu, Vol. 9, Iyakuhin no Tansaku I, “antihypnotic”, p. 220-226, Hirokawa Shoten.
For the test, ddY male mice (19-21 g body weight; Japan SLC, Inc.) were used. All test compounds were used by suspending in distilled water (Otsuka Pharmaceutical Factory, Inc.) containing 0.5 volume/weight % methylcellulose (0.5% MC: Wako Pure Chemical Industries, Ltd.). A volume of 0.1 mL was administered per 10 g body weight of mice.
Groups of seven mice were used. To the control groups were orally administrated 0.5% MC, whereas a suspension of the test compound was orally administered to the test compound administered groups. One hour after the administration, pentobarbital sodium (pentobarbital-Na: Tokyo Chemical Industry Co., Ltd., 25 mg/kg) was administered subcutaneously. Mouse placed in a recumbent position, the mouse immediately returns to a proper upright position (this is known as righting reflex). However, the administration of pentobarbital sodium eliminated the righting reflex in the control groups. The time period in which the administration of […] eliminated the righting reflex was regarded as a sleeping time. By a measurement of time disappearing righting reflex immediately after the administration, the sleeping time was determined.

[2] = Table 5-1, groups of seven, controls 52.12 ± 5.20 (r5) and 35.56 ± 5.21 (r11)
[3] = Table 5-2, groups of seven, controls 40.00 ± 5.32 (r5) and 45.87 ± 4.17 (r12)

| SMILES | Sleeping time (min) Mean value ± standard deviation [1, 2] | melting point | Sleeping time (min) Mean value ± standard deviation [1, 3] |
| --- | --- | --- | --- |
| O=C(Nc1nc(-c2ccco2)c(C(=O)C2CCOCC2)s1)c1ccco1 [Compound 416, N-[4-(2-Furyl)-5-(tetrahydropyran-4-ylcarbonyl)thiazol-2-yl]furan-2-carboxamide] | 0.06 ± 0.06 min | 196 to 198 °C |  |
| Cc1ccc(C(=O)Nc2nc(-c3ccco3)c(C(=O)C3CCOCC3)s2)cc1 [Compound 365, N-[4-(2-Furyl)-5-(tetrahydropyran-4-ylcarbonyl)thiazol-2-yl]-4-methylbenzamide] |  | 190 to 192 °C | 0.05 ± 0.05 min |
| O=C(Nc1nc(-c2ccco2)c(C(=O)C2CCOCC2)s1)c1ccc(Cl)nc1 [Compound 407, 2-Chloro-N-[4-(2-furyl)-5-(tetrahydropyran-4-ylcarbonyl)-thiazol-2-yl]pyridine-5-carboxamide] | 0.00 ± 0.00 min | 233 to 235 °C |  |
| O=C(Nc1nc(-c2ccco2)c(C(=O)c2ccccc2)s1)c1ccncc1 [Compound 508, N-[5-Benzoyl-4-(2-furyl)thiazol-2-yl]pyridine-4-carboxamide] |  |  | 14.26 ± 4.35 min |
| O=C(Nc1nc(-c2ccco2)c(C(=O)C2CCOCC2)s1)c1ccc(F)cc1 [Compound 373, 4-Fluoro-N-[4-(2-furyl)-5-(tetrahydropyran-4-ylcarbonyl)-thiazol-2-yl]benzamide] |  | 131 to 132 °C | 0.03 ± 0.02 min |
| Cc1ncc(C(=O)Nc2nc(-c3ccco3)c(C(=O)c3ccccn3)s2)cn1 [Compound 136, N-[4-(2-Furyl)-5-(pyridin-2-ylcarbonyl)thiazol-2-yl]-2-methylpyrimidine-5-carboxamide] | 1.89 ± 1.81 min | 255 to 265 °C (dec.) |  |
| O=C(CN1CCOCC1)Nc1nc(-c2ccco2)c(C(=O)C2CCOCC2)s1 [Compound 463, N-[4-(2-Furyl)-5-(tetrahydropyran-4-ylcarbonyl)thiazol-2-yl]-2-morpholinoacetamide] |  |  | 0.00 ± 0.00 min |
| COc1cccc(C(=O)Nc2nc(-c3ccco3)c(C(=O)C3CCOCC3)s2)c1 [Compound 367, N-[4-(2-Furyl)-5-(tetrahydropyran-4-ylcarbonyl)thiazol-2-yl]-3-methoxybenzamide] | 0.10 ± 0.10 min | 198 to 200 °C |  |
| N#Cc1ccc(C(=O)Nc2nc(-c3ccco3)c(C(=O)C3CCOCC3)s2)o1 [Compound 420, 5-Cyano-N-[4-(2-furyl)-5-(tetrahydropyran-4-ylcarbonyl)-thiazol-2-yl]furan-2-carboxamide] | 0.00 ± 0.00 min | 222 to 223 °C |  |
| O=C(Nc1nc(-c2ccco2)c(C(=O)c2ccccn2)s1)c1ccco1 [Compound 142, N-[4-(2-Furyl)-5-(pyridin-2-ylcarbonyl)thiazol-2-yl]furan-2-carboxamide] |  | 184 to 185 °C | 4.52 ± 4.41 min |
| O=C(Nc1nc(-c2ccco2)c(C(=O)C2CCOCC2)s1)c1ccncc1 [Compound 360, N-[4-(2-Furyl)-5-(tetrahydropyran-4-ylcarbonyl)thiazol-2-yl]pyridine-4-carboxamide] |  | 202 to 209 °C | 0.03 ± 0.02 min |
| O=C(Nc1nc(-c2ccco2)c(C(=O)C2CCCC2)s1)c1ccncc1 [Compound 336, N-[5-(Cyclopentylcarbonyl)-4-(2-furyl)thiazol-2-yl]pyridine-4-carboxamide] |  | 168 to 181 °C | 1.60 ± 1.56 min |
| O=C(c1ccccn1)c1sc(NC(=O)C2CC2)nc1-c1ccco1 [Compound 99, N-[4-(2-Furyl)-5-(pyridin-2-ylcarbonyl)thiazol-2-yl]cyclopropanecarboxamide] |  | 191 to 192 °C | 0.05 ± 0.02 min |
| O=C(Nc1nc(-c2ccco2)c(C(=O)C2CCOCC2)s1)c1ccc(Cl)cc1 [Compound 376, 4-Chloro-N-[4-(2-furyl)-5-(tetrahydropyran-4-ylcarbonyl)-thiazol-2-yl]benzamide] | 0.00 ± 0.00 min | 204 to 206 °C |  |
| O=C(Nc1nc(-c2ccco2)c(-c2ccncc2)s1)c1ccco1 [Compound 7, N-[4-(2-Furyl)-5-(4-pyridyl)thiazol-2-yl]furan-2-carboxamide] | 6.38 ± 4.58 min |  |  |
| O=C(Nc1nc(-c2ccco2)c(C(=O)c2ccccn2)s1)c1ccncc1 [Compound 95, N-[4-(2-Furyl)-5-(pyridin-2-ylcarbonyl)thiazol-2-yl]pyridine-4-carboxamide] | 0.45 ± 0.45 min | 218 to 227 °C |  |
| N#Cc1ccc(C(=O)Nc2nc(-c3ccco3)c(C(=O)c3ccccn3)s2)cc1 [Compound 114, 4-Cyano-N-[4-(2-furyl)-5-(pyridin-2-ylcarbonyl)thiazol-2-yl]benzamide] |  | 232 to 235 °C | 0.63 ± 0.53 min |
| Cc1ccc(C(=O)Nc2nc(-c3ccco3)c(C(=O)C3CCOCC3)s2)cn1 [Compound 409, N-[4-(2-Furyl)-5-(tetrahydropyran-4-ylcarbonyl)thiazol-2-yl]-2-methylpyridine-5-carboxamide] |  |  | 0.05 ± 0.05 min |
| COC(=O)Nc1nc(-c2ccco2)c(C(=O)c2ccccn2)s1 [Compound 157, Methyl N-[4-(2-furyl)-5-(pyridin-2-ylcarbonyl)thiazol-2-yl]carbamate] |  |  | 9.39 ± 5.68 min |
| O=C(Nc1nc(-c2ccco2)c(C(=O)C2CCOCC2)s1)C1CC1 [Compound 361, N-[4-(2-Furyl)-5-(tetrahydropyran-4-ylcarbonyl)thiazol-2-yl]cyclopropanecarboxamide] | 1.65 ± 1.40 min | 182 to 183 °C |  |
| O=C(Nc1nc(-c2ccco2)c(-c2ccncc2)s1)c1ccoc1 [Compound 8, N-[4-(2-Furyl)-5-(4-pyridyl)thiazol-2-yl]furan-3-carboxamide] | 4.16 ± 4.16 min |  |  |
